Assay results: US8916555B2, “3,5-diaminopyrazole kinase inhibitors” (Axikin Pharmaceuticals, Inc., priority 2012, dated 2014)

Assays:
[1] = target: T1, kinase domain protein of RC kinase (Homo sapiens, UniProt Q56UN5); experiment: Enzymatic assay for kinase inhibitory activity (Crebtide substrate, LANCE readout), kinase domain protein; format: biochemical; conditions: test compound 1 μM, ATP 1 μM, Crebtide 50 nM
T1 sequence (Q56UN5 1061-1324 limits assumed): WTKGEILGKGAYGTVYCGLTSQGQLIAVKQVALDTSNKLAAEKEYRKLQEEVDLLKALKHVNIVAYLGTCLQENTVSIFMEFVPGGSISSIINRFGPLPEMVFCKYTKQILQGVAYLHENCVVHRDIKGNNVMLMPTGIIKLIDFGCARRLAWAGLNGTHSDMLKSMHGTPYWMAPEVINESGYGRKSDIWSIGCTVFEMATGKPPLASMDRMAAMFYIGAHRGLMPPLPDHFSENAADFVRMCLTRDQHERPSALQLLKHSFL
Outline: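 Kinase domain (1 mg/mL final) with 50 nM Crebtide and 1 μM ATP in MAPK buffer (50 mM HEPES, 10 mM MgCl2, 2 mM DTT, 0.01% Tween 20), 45 min RT. Compound at 1 μM or 1×IC50, duplicate. EDTA/anti-Crebtide stop, 45 min development, LANCE 665/615 nm; % inhibition at 1 μM binned A–D.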

inhibition at 1 µM [1] [%]	melting point [°C]	SMILES
≥ 50	217 to 221	NC(=O)c1c(Nc2ccc(-c3ccccn3)cc2)n[nH]c1NCc1ccc(O)cc1 [Compound D109]
≥ 50	236 to 240	NC(=O)c1c(Nc2ccc(N3CCN(C(=O)N4CCCCC4)CC3)cc2)n[nH]c1NCc1ccc(O)cc1 [Compound D110, 5-((4-hydroxybenzyl)amino)-3-((4-(4-(piperidine-1-carbonyl)piperazin-1-yl)phenyl)amino)-1H-pyrazole-4-carboxamide]
≥ 50	258 to 266	NC(=O)c1c(Nc2ccc(-c3cnco3)cc2)n[nH]c1NCc1ccc(O)cc1 [Compound D111]
20 to 50	178 to 180	COc1ccc(CNc2n[nH]c(NCc3ccc(O)cc3)c2C(N)=O)cn1 [Compound D112]
5 to 20	263 to 267	CS(=O)(=O)c1ccc(CNc2n[nH]c(NCc3ccc(O)cc3)c2C(N)=O)cc1 [Compound D113, 5-((4-hydroxybenzyl)amino)-3-((4-(methylsulfonyl)benzyl)amino)-1H-pyrazole-4-carboxamide]
≤ 5	189 to 191	NC(=O)c1c(NCc2c(F)cccc2F)n[nH]c1NCc1ccc(O)cc1 [Compound D114]
5 to 20	215 to 218	NC(=O)c1c(NCc2c(F)cccc2Cl)n[nH]c1NCc1ccc(O)cc1 [Compound D115]
≥ 50	230 to 236	CN1CCN(c2ccc(Nc3n[nH]c(NCc4ccc(O)cc4)c3C(N)=O)cc2Cl)CC1 [Compound D116]
≥ 50	199 to 203	NC(=O)c1c(Nc2ccc(N3CCOCC3)nc2)n[nH]c1NCc1ccc(O)cc1 [Compound D118]
≥ 50	203 to 206	CC1CCN(C2CCN(c3ccc(Nc4n[nH]c(NCc5ccc(O)cc5)c4C(N)=O)cn3)CC2)CC1 [Compound D119]
≥ 50	241 to 244	NC(=O)c1c(Nc2ccc(N3CCC(N4CCCC4)CC3)cc2)n[nH]c1NCc1ccc(O)cc1 [Compound D121]
5 to 20	204 to 207	NC(=O)c1c(NCc2ccc(Cl)c(F)c2)n[nH]c1NCc1ccc(O)cc1 [Compound D122]
≥ 50	219 to 227	NC(=O)c1c(Nc2ccc(N3CCN(c4ncccn4)CC3)cc2)n[nH]c1NCc1ccc(O)cc1 [Compound D124]
≥ 50	216 to 220	NC(=O)c1c(Nc2ccc(-c3cc(CO)c4ccccc4n3)cc2)n[nH]c1NCc1ccc(O)cc1 [Compound D125]
≥ 50	184 to 188	CN(C)c1ccc(Nc2n[nH]c(NCc3ccc(O)cc3)c2C(N)=O)cc1 [Compound D126, 3-((4-(dimethylamino)phenyl)amino)-5-((4-hydroxybenzyl)amino)-1H-pyrazole-4-carboxamide]
≥ 50	216 to 220	NC(=O)c1c(Nc2ccc(NC(=O)c3cccc(F)c3)cc2)n[nH]c1NCc1ccc(O)cc1 [Compound D131]

inhibition at 1 µM [1] [%]	melting point [°C]	SMILES
≥ 50	227 to 231	NC(=O)c1c(Nc2ccc(NC(=O)c3ccc(F)cc3)cc2)n[nH]c1NCc1ccc(O)cc1 [Compound D132, 3-((4-(4-fluorobenzamido)phenyl)amino)-5-((4-hydroxybenzyl)amino)-1H-pyrazole-4-carboxamide]
≥ 50	222 to 226	CC(C)(C)OC(=O)Nc1ccc(Nc2n[nH]c(NCc3ccc(O)cc3)c2C(N)=O)cc1 [Compound D135]
20 to 50	200 to 204	CC(C)c1ccc(Nc2n[nH]c(NCc3ccc(O)cc3)c2C(N)=O)cc1 [Compound D137, 5-((4-hydroxybenzyl)amino)-3-((4-isopropylphenyl)amino)-1H-pyrazole-4-carboxamide]
20 to 50	228 to 232	NC(=O)c1c(Nc2ccc(NC(=O)c3sc4cc(F)ccc4c3Cl)cc2)n[nH]c1NCc1ccc(O)cc1 [Compound D141, 3-((4-(3-chloro-6-fluorobenzo[b]thiophene-2-carboxamido)phenyl)amino)-5-((4-hydroxybenzyl)amino)-1H-pyrazole-4-carboxamide]
≥ 50	208 to 211	COc1ccccc1C(=O)Nc1ccc(Nc2n[nH]c(NCc3ccc(O)cc3)c2C(N)=O)cc1 [Compound D143, 5-((4-hydroxybenzyl)amino)-3-((4-(2-methoxybenzamido)phenyl)amino)-1H-pyrazole-4-carboxamide]
≥ 50	229 to 233	NC(=O)c1c(Nc2cccnc2)n[nH]c1NCc1ccc(O)cc1 [Compound D150, 5-((4-hydroxybenzyl)amino)-3-(pyridin-3-ylamino)-1H-pyrazole-4-carboxamide]
20 to 50	218 to 222	COc1ccc(CNc2[nH]nc(Nc3cccnc3)c2C(N)=O)cc1 [Compound D151, 5-((4-methoxybenzyl)amino)-3-(pyridin-3-ylamino)-1H-pyrazole-4-carboxamide]
20 to 50	226 to 230	COc1cccc(CNc2[nH]nc(Nc3cccnc3)c2C(N)=O)c1 [Compound D152]
5 to 20	228 to 231	NC(=O)c1c(Nc2cccnc2)n[nH]c1NCc1ccc(Cl)cc1 [Compound D154, 5-((4-chlorobenzyl)amino)-3-(pyridin-3-ylamino)-1H-pyrazole-4-carboxamide]
5 to 20	228 to 231	NC(=O)c1c(Nc2cccnc2)n[nH]c1NCc1ccccc1 [Compound D155, 5-(benzylamino)-3-(pyridin-3-ylamino)-1H-pyrazole-4-carboxamide]
5 to 20	225 to 227	COc1ccccc1CNc1[nH]nc(Nc2cccc(Cl)c2)c1C(N)=O [Compound D157, 3-((3-chlorophenyl)amino)-5-((2-methoxybenzyl)amino)-1H-pyrazole-4-carboxamide]
≥ 50	203 to 209	NC(=O)c1c(Nc2ccc(Cl)c(Cl)c2)n[nH]c1NCc1ccc(O)cc1 [Compound D158, 3-((3,4-dichlorophenyl)amino)-5-((4-hydroxybenzyl)amino)-1H-pyrazole-4-carboxamide]
≥ 50	178 to 183	NC(=O)c1c(Nc2ccc(F)c(Cl)c2)n[nH]c1NCc1ccc(O)cc1 [Compound D159, 3-((3-chloro-4-fluorophenyl)amino)-5-((4-hydroxybenzyl)amino)-1H-pyrazole-4-carboxamide]
20 to 50	199 to 204	NC(=O)c1c(Nc2ccc(Br)c(Cl)c2)n[nH]c1NCc1ccc(O)cc1 [Compound D160, 3-((4-bromo-3-chlorophenyl)amino)-5-((4-hydroxybenzyl)amino)-1H-pyrazole-4-carboxamide]
≥ 50	206 to 210	NC(=O)c1c(Nc2ccc(-c3ccccc3)cc2)n[nH]c1NCc1ccc(O)cc1 [Compound D161, 3-([1,1′-biphenyl]-4-ylamino)-5-((4-hydroxybenzyl)amino)-1H-pyrazole-4-carboxamide]
